Patent US20030113810A1, “Novel assay” (priority 2000, published 2003)
Where two headings read alike, the source gives them in different places.

What was measured:
human GPR41 = molecular target: T1, human GPR41 (Homo sapiens, UniProt O14843)
T1 sequence (O14843 1-346): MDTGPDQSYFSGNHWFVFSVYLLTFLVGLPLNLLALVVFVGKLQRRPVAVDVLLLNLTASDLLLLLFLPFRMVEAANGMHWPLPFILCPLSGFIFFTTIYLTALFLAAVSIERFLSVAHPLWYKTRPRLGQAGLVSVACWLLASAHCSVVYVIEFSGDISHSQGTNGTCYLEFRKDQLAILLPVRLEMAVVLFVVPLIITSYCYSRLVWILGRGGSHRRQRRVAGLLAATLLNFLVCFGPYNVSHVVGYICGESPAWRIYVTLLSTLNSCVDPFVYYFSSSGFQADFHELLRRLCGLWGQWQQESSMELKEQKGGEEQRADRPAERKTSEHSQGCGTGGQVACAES
Protocol: HEK293T cells (HEK293 cells stably expressing the SV40 large T-antigen) were maintained in DMEM containing 10% (v/v) foetal calf serum and 2 mM glutamine. Cells were seeded in 60 mm culture dishes and grown to 60-80% confluency (18-24 h) prior to transfection with pCDNA3 containing the relevant DNA species using Lipofectamine reagent. For transfection, 3 μg of DNA was mixed with 10 μl of Lipofectamine in 0.2 ml of Opti-MEM (Life Technologies Inc.) and was incubated at room temperature for 30 min prior to the addition of 1.6 ml of Opti-MEM. Cells were exposed to the Lipofectamine/DNA mixture for 5 h and 2 ml of 20% (v/v) newborn calf serum in DMEM was then added. Cells were harvested 48-72 h after transfection.
Plasma membrane-containing P2 particulate fractions were prepared from cell pastes frozen at −80° C. after harvest. All procedures were carried out at 4° C. Cell pellets were resuspended in 1 ml of 10 mM Tris-HCl and 0.1 mM EDTA, pH 7.5 (buffer A) and by homogenisation for 20 s with a polytron homogeniser followed by passage (5 times) through a 25-guage needle. Cell lysates were centrifuged at 1,000 g for 10 min in a microcentrifuge to pellet the nuclei and unbroken cells and P2 particulate fractions were recovered by microcentrifugation at 16,000 g for 30 min. P2 particulate fractions were resuspended in buffer A and stored at −80° C. until required. Protein concentrations were determined using the bicinchoninic acid (BCA) procedure (4) using BSA as a standard.
Assays were performed in 96-well format using a method modified from Wieland and Jakobs, 1994. Membranes (10 μg per point) were diluted to 0.083 mg/ml in assay buffer (20 mM HEPES, 100 mM NaCl, 10 mM MgCl2, pH7.4) supplemented with saponin (10 mg/l) and pre-incubated with 40 μM GDP. […] Non-specific binding was determined by the inclusion of 0.6 mM GTP. […] Plates were centrifuged at 1500 g for 5 min and bound [^35S]GTPγS was determined by scintillation counting on a Wallac 1450 microbeta Trilux scintillation counter.

rGPR41 [1] = molecular target: T2, rGPR41 (Rattus norvegicus, UniProt B2GV46); test: Yeast FUS1-lacZ/FUS1-HIS3 reporter assay, rGPR41 in S. cerevisiae MMY22 (Gpa1/Gαo), FDG substrate; type: cell-based; parameters: expressed in transfected cells; host or cells: S. cerevisiae MMY22 (A1, A5; Gpa1/Gαo integrated) or MMY11 + pRS314-Gpa1/Gαo (A4), transformed with p426GPD-rGPR41
T2 sequence (B2GV46 1-319): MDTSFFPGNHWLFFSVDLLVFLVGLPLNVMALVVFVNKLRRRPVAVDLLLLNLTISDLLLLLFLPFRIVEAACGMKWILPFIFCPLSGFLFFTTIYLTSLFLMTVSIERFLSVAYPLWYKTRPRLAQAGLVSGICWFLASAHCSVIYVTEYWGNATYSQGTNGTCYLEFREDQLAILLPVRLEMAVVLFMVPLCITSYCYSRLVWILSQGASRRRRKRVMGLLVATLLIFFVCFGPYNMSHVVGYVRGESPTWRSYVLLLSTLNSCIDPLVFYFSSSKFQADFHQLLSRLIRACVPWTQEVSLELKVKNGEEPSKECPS
Protocol: A study was carried out of the function of rGPR41 following expression in S. cerevisiae MMY22, which is a derivative of S. cerevisiae MMY11 containing a copy of the gene encoding the Gpa1/Gαo transplant chimera described above (in which the 5 C-terminal amino acids of Gpa1 are replaced with the 5 C-terminal amino acids of Gαo) integrated into the genome. To do this, a cassette comprising the GPA1 promoter, nucleotide sequence encoding Gpa1/Gαo, and the terminator was sub-cloned from pRS314-Gpa1/Gαo into the yeast integrating plasmid pRS304 (Sikorski and Hieter, 1989). The resulting plasmid pRS304-Gpa1/Gαo was transformed into MMY11 and integrated into the trp1 locus creating MMY22.
The rGPR41 expression construct described above, p462GPD-rGPR41 was introduced into MMY22 by transformation as described above. Four separate transformants were tested for reporter gene activation in response to propionate. Assays for FUS1-lacZ and FUS1-HIS3 induction were performed as described, except the β-galactosidase (lacZ) substrate fluorescein di-β-D-galactopyranoside (FDG) was used in place of CPRG, and 3-aminotriazole concentration was 5 mM. Also, black-walled 96-well microtitre plates were used, and fluorescence resulting from degradation of FDG to fluorescein due to β-galactosidase was determined using a Spectrofluor microtitre plate reader (Tecan)(excitation wavelength: 485 nm; emmision wavelength: 535 nm).
A series of carboxylic acids and other compounds related to propionate were tested for the ability to activate rGPR41. Experiments were performed as described above, using yeast cells of strain MMY22 transformed with rGPR41 expression plasmid p462GPD-rGPR41, except that the agonist propionate was replaced with one of a series of other compounds, which are listed in table 2 below.
In vivo assays of reporter gene induction were carried out by suspending MMY11 cells transformed as described above to a density of 0.02 OD600/ml in 200 μl SC-glucose (2%) medium lacking tryptophan, uracil and histidine. This medium was supplemented with 10 mM 3-aminotriazole and the β-galactosidase (lacZ) substrate chlorophenolred-β-D-galactopyranoside (CPRG; Boehringer Mannheim) to a concentration of 0.1 mg/ml. Additionally the medium was supplemented with various concentrations of the agonist ligand, propionate (sodium propionate, pH 7.0). To visualise the yellow to red colour change reaction occurring on degradation of CPRG due to β-galactosidase, the medium was buffered to pH 7 with 0.1 M sodium phosphate. The assay was conducted in flat-bottomed sterile 96-well microtitre plates. Plates were incubated for 24 hours at 30° C. without agitation, and absorbance at 570 nm was determined using a Spectrofluor microtitre plate reader (Tecan).

[2] = system: isoprenaline-stimulated adenylate cyclase activity in rat primary adipocytes; conditions: 10 minutes at 37° C., FIG. 11
Protocol: Isoprenaline stimulates adenylate cyclase activity and subsequently the process of lipolysis following activation of β-adrenoceptors and G,a in adipocytes.
A reaction mixture of 500 μl was used in a 1.5 ml eppendorf tube. The reaction was started by the addition of 100 μl of adipocytes to a 400 μl volume of Krebs buffer containing isoprenaline and test compound. Following the addition of the adipocytes the reaction tube was incubated at 37° C. for 10 minutes. The reaction was stopped with the addition of 500 μl of a stop mixture containing methanol (1 part), chloroform (2 parts) and 0.1N HCl (0.1 part). Following the addition of the stop mixture each tube was vortexed and then centifuged at 5000 rpm for 5 minutes. 300 μl of the supernatent was removed and stored at −20° C. The levels of cAMP in each samples were determined using an ELISA kit from R&D systems (DE0355).

rGPR41 [3] = molecular target: T2, rGPR41; test: Yeast reporter gene induction, MMY11 cells with p426GPD-rGPR41 and pRS314-Gpa1/Gαo, CPRG substrate; type: cell-based; conditions: MMY11, Gpa1/Gαo transplant; FIG. 6
Source text: Significant absorbance at 570 nm, corresponding to induction of FUS1-lacZ and FUS1-HIS3 reporter genes, was detected for MMY11 cells containing p426GPD-rGPR41 in combination with pRS314-Gpa1/Gαo. These cells express rGPR41 in combination with a Gα subunit identical to Gpa1 but in which the 5 C-terminal amino acids are replaced with the 5 C-terminal amino acids of the mammalian Gα subunit, Gαo. This response is dependant on the presence of the agonist ligand propionate since no induction is detected in the absence of propionate (FIG. 6). […] Of the other Gα subunits tested, the pRS314-Gpa1/Gα12 and pRS314-Gpa1/Gα13 transplants supported weak rGPR41 coupling detectable after 48 hrs incubation (data not shown), and with no other Gα subunit could ligand responses of rGPR41 be detected.
The yeast strain MMY11 has been described previously (Olesnicky et al, 1999). […]
In vivo assays of reporter gene induction were carried out by suspending MMY11 cells transformed as described above to a density of 0.02 OD600/ml in 200 μl SC-glucose (2%) medium lacking tryptophan, uracil and histidine. […] Plates were incubated for 24 hours at 30° C. without agitation, and absorbance at 570 nm was determined using a Spectrofluor microtitre plate reader (Tecan).

[4] = yeast MMY22 with p462GPD-rGPR41, FDG fluorescence, compounds as salt solutions buffered to pH 7.0, read-out: Agonism @ rGPR41 Approx. EC50

Row | SMILES | stimulation of [35S]GTPγS binding (human GPR41) | EC50 (rGPR41 [1]; [4]) [µM] | isoprenaline-amplified cAMP levels [2] | stimulation of [35S]GTPγS binding (human GPR41; membranes of HEK293T cells, human GPR41 + Go1α, FIG. 2-4) | induction of FUS1-lacZ and FUS1-HIS3 reporter genes (absorbance at 570 nm) (rGPR41 [3]) | fluorescence, activation of the pheromone response pathway by rGPR41 (rGPR41 [1]; MMY22, four transformants, FIG. 7) | EC50 (rGPR41 [1]; yeast MMY22, text of Example 8, read-out: EC50 value at rGPR41) [µM]
1 | CC(=O)O [Acetate] | stimulation of [^35S]GTPγS binding | ~1000 | reduction of isoprenaline-amplified cAMP levels |  |  |  | 
2 | CCC(=O)O [Propionate] |  | ~5 |  | most potent and efficacious | can be activated by propionate | dependent on the concentration of propionate | 5
